Data on 23 compounds can be found in patent US20160289186A1, “FLUOROMETHYL-SUBSTITUTED PYRROLE CA[…]” (Grunenthal GmbH, priority 2013, published 2016).

The test deals with T1, Human CaV2.2 channels (Homo sapiens, UniProt Q00975).
T1 construct: expressed in transfected cells; host or cells: HEK293
T1 sequence (Q00975 whole entry): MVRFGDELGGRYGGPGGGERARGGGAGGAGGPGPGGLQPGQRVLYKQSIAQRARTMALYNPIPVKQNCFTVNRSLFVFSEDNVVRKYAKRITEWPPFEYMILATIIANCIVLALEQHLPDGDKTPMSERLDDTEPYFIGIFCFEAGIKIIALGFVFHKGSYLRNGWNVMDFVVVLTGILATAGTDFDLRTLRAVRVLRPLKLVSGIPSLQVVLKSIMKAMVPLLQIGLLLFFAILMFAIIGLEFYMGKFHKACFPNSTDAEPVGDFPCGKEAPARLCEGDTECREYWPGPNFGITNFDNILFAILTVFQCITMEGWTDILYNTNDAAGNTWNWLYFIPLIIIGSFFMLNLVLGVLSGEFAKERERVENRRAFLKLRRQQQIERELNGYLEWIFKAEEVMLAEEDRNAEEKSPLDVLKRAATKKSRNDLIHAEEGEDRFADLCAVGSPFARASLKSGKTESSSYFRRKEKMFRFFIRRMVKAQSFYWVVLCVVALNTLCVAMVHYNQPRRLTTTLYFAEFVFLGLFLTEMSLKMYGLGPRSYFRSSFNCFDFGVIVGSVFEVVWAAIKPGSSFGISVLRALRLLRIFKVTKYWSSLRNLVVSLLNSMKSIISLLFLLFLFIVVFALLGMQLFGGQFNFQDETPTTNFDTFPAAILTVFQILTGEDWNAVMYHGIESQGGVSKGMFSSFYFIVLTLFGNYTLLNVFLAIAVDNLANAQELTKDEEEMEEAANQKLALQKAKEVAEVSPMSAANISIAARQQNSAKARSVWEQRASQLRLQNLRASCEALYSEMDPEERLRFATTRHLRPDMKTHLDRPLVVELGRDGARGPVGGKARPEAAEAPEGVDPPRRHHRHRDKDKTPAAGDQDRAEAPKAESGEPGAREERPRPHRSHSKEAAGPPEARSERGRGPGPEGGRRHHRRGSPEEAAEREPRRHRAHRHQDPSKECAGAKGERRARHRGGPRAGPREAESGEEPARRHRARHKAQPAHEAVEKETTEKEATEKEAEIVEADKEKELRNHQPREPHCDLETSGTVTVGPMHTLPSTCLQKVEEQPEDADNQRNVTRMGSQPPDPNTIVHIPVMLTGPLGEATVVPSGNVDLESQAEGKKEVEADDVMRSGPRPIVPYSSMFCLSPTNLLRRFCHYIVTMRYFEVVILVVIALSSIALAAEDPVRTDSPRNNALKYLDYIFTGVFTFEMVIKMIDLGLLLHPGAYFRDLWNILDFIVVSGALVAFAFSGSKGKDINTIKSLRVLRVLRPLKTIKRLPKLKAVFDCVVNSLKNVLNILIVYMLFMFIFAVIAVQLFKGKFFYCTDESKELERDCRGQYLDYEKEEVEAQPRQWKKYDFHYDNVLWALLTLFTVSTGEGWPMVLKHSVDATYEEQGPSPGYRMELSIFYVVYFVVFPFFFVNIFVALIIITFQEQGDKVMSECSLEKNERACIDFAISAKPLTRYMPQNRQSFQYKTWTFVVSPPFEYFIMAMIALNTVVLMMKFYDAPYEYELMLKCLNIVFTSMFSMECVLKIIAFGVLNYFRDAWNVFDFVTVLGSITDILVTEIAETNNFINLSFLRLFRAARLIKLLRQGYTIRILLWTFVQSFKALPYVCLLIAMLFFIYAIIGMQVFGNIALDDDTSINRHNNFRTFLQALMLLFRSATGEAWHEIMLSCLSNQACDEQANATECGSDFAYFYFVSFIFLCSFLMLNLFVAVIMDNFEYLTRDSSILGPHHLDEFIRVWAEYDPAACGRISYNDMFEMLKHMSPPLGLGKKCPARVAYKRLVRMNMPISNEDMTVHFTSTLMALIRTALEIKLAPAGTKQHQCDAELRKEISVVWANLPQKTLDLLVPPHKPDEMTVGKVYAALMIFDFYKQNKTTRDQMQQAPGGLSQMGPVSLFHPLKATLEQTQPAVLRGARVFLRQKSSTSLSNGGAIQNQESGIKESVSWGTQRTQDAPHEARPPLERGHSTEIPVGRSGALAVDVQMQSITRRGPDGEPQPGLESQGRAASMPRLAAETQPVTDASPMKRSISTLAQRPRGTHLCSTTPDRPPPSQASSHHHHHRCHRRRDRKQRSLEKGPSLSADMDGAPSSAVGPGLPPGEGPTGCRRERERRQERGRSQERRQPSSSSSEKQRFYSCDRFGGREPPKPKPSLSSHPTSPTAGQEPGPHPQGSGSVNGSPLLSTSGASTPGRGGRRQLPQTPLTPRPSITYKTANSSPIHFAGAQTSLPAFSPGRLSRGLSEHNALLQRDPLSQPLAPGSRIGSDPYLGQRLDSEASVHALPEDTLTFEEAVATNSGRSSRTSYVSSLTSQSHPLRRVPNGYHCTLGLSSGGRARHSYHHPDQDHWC
T1 sequence (P54284 whole entry, further chain): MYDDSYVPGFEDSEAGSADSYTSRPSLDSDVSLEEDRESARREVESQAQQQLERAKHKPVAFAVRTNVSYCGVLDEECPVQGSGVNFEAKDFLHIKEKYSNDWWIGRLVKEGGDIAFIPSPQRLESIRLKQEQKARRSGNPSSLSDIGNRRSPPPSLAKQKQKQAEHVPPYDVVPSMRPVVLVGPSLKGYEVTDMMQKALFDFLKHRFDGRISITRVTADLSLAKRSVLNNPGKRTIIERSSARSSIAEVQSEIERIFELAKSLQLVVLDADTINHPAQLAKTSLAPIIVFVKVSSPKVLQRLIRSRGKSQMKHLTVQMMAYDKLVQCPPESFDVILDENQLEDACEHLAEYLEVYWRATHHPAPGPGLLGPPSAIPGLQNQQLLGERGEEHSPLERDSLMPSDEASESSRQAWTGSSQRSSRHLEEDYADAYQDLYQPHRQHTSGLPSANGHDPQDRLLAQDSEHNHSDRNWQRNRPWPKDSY
T1 sequence (P54289 25-1103, further chain): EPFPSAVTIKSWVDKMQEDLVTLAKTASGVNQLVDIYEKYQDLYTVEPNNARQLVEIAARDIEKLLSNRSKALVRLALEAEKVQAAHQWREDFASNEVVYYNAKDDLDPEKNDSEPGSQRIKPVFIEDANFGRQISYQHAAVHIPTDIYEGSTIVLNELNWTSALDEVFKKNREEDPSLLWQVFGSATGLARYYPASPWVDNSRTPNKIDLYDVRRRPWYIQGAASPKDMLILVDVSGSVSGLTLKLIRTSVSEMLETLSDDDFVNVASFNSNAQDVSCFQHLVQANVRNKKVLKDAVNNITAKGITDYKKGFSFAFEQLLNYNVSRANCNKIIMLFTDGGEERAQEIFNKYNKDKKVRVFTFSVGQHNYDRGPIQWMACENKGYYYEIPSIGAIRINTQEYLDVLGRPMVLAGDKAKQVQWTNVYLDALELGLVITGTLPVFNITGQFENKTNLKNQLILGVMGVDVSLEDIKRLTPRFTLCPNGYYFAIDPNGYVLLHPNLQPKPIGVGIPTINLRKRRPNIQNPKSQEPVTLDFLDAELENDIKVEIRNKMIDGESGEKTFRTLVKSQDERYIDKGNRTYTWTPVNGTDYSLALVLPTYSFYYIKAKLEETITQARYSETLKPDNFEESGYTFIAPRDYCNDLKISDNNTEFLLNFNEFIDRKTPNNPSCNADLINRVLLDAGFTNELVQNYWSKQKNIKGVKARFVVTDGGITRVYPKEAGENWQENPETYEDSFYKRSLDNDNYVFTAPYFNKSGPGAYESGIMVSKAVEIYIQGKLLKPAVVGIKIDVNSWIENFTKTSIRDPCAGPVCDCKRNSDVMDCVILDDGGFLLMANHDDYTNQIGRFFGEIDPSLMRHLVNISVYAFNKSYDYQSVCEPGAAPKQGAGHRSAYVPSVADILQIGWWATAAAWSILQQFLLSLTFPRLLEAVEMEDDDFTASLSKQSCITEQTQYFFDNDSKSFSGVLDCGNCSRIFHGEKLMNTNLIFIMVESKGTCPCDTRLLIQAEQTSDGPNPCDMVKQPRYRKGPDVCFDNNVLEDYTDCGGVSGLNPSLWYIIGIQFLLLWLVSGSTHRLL
Briefly: Fluorescent (FLIPR) assay for CaV2.2 channels using potassium depolarization to induce channel opening. Type of test: cell-based. To be noted: 3 μM compound; 30 mM KCl assay buffer (inactivated channel state); HEK293 cells stably expressing human CaV2.2; read-out: Activity Category: %-Inhib (CaV2.2) @3 μM @30 mM KCl. The source says: In the process, the Ca^2+ influx is quantified in the FLIPR assay with the aid of a Ca^2+-sensitive dye (type Fluo-4, Molecular Probes Europe BV, Leiden, the Netherlands) in a fluorescent imaging plate reader (FLIPR 3, Molecular Devices, Sunnyvale, USA), as described hereinafter.
Human CaV2.2 channels were stably expressed in HEK293 cells together with alpha2-delta and beta subunits of voltage gated calcium channels. In addition, an inwardly rectifying potassium channel (Kir2.3) was stably expressed in these cells to augment control of the cell membrane potential by the concentration of extracellular potassium ions. Raise of the extracellular potassium concentration leads to depolarization of the membrane potential and thus regulates the voltage dependent state of CaV2.2 channels. For preparation, cells were seeded in black poly-D-lysine coated 96-well plates (Becton Dickinson, Biocoat 4640) in 100 μL medium [500 mL DMEM/F-12 plus Glutamax (Invitrogen 31331-093) plus 5.5 mL MEM NEAA 100× (Invitrogen 11140-035) plus 50 mL FBS decomplemented (Invitrogen 10270-106) plus 200 μg/mL Geneticin (Invitrogen 10131-027) plus 50 μg/mL Hygromycin B (Invitrogen 10687-010) plus 2 μg/mL Blasticidin (anti-bl5b Invivo-Gen) plus 0.2 μg/mL Puromycin (A 11138-03)] at a cell density of 30.000 cells per well. Plates were incubated at 37° C. (5% CO2) for 20 to 23 h. On the day of experiment medium was discarded and cells were loaded with Fluo 4 by addition of 100 μL of basic assay buffer (10 mM HEPES, 1 mM KCl, 149 mM NaCl, 0.8 mM CaCl2, 1.7 mM MgCl2, 10 mM Glucose, 0.1% BSA. pH 7.4) containing 2 μM Fluo 4 (Molecular Probes; F-14201), 0.01% pluronic acid (Molecular Probes; P-6866) and 2.5 mM probenecid (Molecular Probes; P36400). Cells were incubated in the dark at 25° C. for 60 min. Then dye containing buffer was discarded and 100 μL basic (1 mM KCl) or alternative (30 mM KCl) assay buffer was added. The alternative assay buffer contained altered concentrations of KCl (30 mM) and NaCl (120 mM) and was used in order to promote the inactivated channel state. After that 25 μL of basic or alternative assay buffer with or without test compound were added and cells were incubated again in the dark at 25° C. for 15 min. Fluorescence intensity was measured on a FLIPR 3 instrument (Molecular Devices Corp., Sunnyvale, Calif.) with excitation at 480 nm and emission at 535 nm. After continuously reading fluorescence for 30 sec, 50 μL of basic assay buffer containing 210 mM KCl (NaCl omitted) were added for depolarization. Peak fluorescent signal intensity was determined and the amplitude of the peak signal, normalized to base line, was used to measure channel inhibition by test compounds.
Consider `Cc1c(-c2ccc(Cl)cc2)c(C(=O)N(Cc2ccccc2)C2CCOCC2)n(C)c1C(F)(F)F` [Example 001, N-Benzyl-3-(4-chlorophenyl)-1,4-dimethyl-N-tetrahydro-pyran-4-yl-5-(trifluoromethyl)-1H-pyrrole-2-carboxylic acid amide], for which the inhibition at 3 µM fell in the range of 75 to 95%.

Turning to `Cc1c(-c2ccc(Cl)cc2)c(C(=O)N(C)CC(C)(C)C)n(C)c1C(F)(F)F` [Example 002, 3-(4-Chlorophenyl)-N-(2,2-dimethyl-propyl)-N,1,4-trimethyl-5-(trifluoromethyl)-1H-pyrrole-2-carboxylic acid amide], the inhibition at 3 µM lay in the range of 75 to 95%. Then `Cc1c(-c2ccc(Cl)cc2)c(C(=O)N(Cc2ccccc2)CC(C)(C)C)n(C)c1C(F)(F)F` [Example 003, N-Benzyl-3-(4-chlorophenyl)-N-(2,2-dimethyl-propyl)-1,4-dimethyl-5-(trifluoromethyl)-1H-pyrrole-2-carboxylic acid amide], with 40 to 75%. In the case of `Cc1c(-c2ccc(Cl)cc2)c(C(=O)N2CCOCC2)n(C)c1C(F)(F)F` [Example 004, [3-(4-Chlorophenyl)-1,4-dimethyl-5-(trifluoromethyl)-1H-pyrrol-2-yl]-morpholin-4-yl-methanone] it was 75 to 95%; in that of `CCn1c(C(=O)N(C)CC(C)(C)C)c(-c2ccc(Cl)cc2)c(C)c1C(F)(F)F` [Example 005, 3-(4-Chlorophenyl)-N-(2,2-dimethyl-propyl)-1-ethyl-N,4-dimethyl-5-(trifluoromethyl)-1H-pyrrole-2-carboxylic acid amide], 40 to 75%; in that of `Cc1c(-c2ccc(Cl)cc2)c(C(=O)N2CCOC(C)(C)C2)n(C(C)C)c1C(F)(F)F` [Example 006, [3-(4-Chlorophenyl)-1-isopropyl-4-methyl-5-(trifluoromethyl)-1H-pyrrol-2-yl]-(2,2-dimethyl-morpholin-4-yl)-methanone], 75 to 95%. Then `Cc1c(-c2ccc(Cl)cc2)c(C(=O)N(C)C2(C(N)=O)CC2)n(C2CC2)c1C(F)(F)F` [Example 007, N-(1-Carbamoyl-cyclopropyl)-3-(4-chlorophenyl)-1-cyclopropyl-N,4-dimethyl-5-(trifluoromethyl)-1H-pyrrole-2-carboxylic acid amide], with 40 to 75%; and `Cc1c(-c2ccc(Cl)cc2)c(C(=O)N(C)C2CCS(=O)(=O)CC2)n(C2CC2)c1C(F)(F)F` [Example 008, 3-(4-Chlorophenyl)-1-cyclopropyl-N-(1,1-dioxo-thian-4-yl)-N,4-dimethyl-5-(trifluoromethyl)-1H-pyrrole-2-carboxylic acid amide], with 75 to 95%.

Consider `Cc1c(-c2ccc(Cl)cc2)c(C(=O)N(C)CC(C)(C)C(N)=O)n(C2CC2)c1C(F)(F)F` [Example 009, N-(2-Carbamoyl-2-methyl-propyl)-3-(4-chlorophenyl)-1-cyclopropyl-N,4-dimethyl-5-(trifluoromethyl)-1H-pyrrole-2-carboxylic acid amide], for which the inhibition at 3 µM fell in the range of 75 to 95%. In the case of `COc1ccc(CN(C)C(=O)c2c(-c3ccc(Cl)cc3)c(C)c(C(F)(F)F)n2C2CC2)cc1` [Example 010, 3-(4-Chlorophenyl)-1-cyclopropyl-N-[(4-methoxyphenyl)-methyl]-N,4-dimethyl-5-(trifluoromethyl)-1H-pyrrole-2-carboxylic acid amide] it was 75 to 95%; in that of `COc1ccc(CN(C)C(=O)c2c(-c3ccc(Cl)cc3)cc(C(F)(F)F)n2C2CC2)cc1` [Example 011, 3-(4-Chlorophenyl)-1-cyclopropyl-N-[(4-methoxyphenyl)-methyl]-N-methyl-5-(trifluoromethyl)-1H-pyrrole-2-carboxylic acid amide], 75 to 95%; in that of `Cc1c(-c2ccc(Cl)cc2)c(C(=O)N(C)C2CC2)n(C2CC2)c1C(F)(F)F` [Example 012, 3-(4-Chlorophenyl)-N,1-dicyclopropyl-N,4-dimethyl-5-(trifluoromethyl)-1H-pyrrole-2-carboxylic acid amide], 75 to 95%. Then `CN(C(=O)c1c(-c2ccc(Cl)cc2)cc(C(F)(F)F)n1C1CC1)C1CC1` [Example 013, 3-(4-Chlorophenyl)-N,1-dicyclopropyl-N-methyl-5-(trifluoromethyl)-1H-pyrrole-2-carboxylic acid amide], with 75 to 95%; and `Cc1c(-c2ccc(Cl)cc2)c(C(=O)N(C)C2CCOCC2)n(C2CC2)c1C(F)(F)F` [Example 014, 3-(4-Chlorophenyl)-1-cyclopropyl-N,4-dimethyl-N-tetrahydro-pyran-4-yl-5-(trifluoromethyl)-1H-pyrrole-2-carboxylic acid amide], with 75 to 95%; and `CN(C(=O)c1c(-c2ccc(Cl)cc2)cc(C(F)(F)F)n1C1CC1)C1CCOCC1` [Example 015, 3-(4-Chlorophenyl)-1-cyclopropyl-N-methyl-N-tetrahydro-pyran-4-yl-5-(trifluoromethyl)-1H-pyrrole-2-carboxylic acid amide], with 75 to 95%.

For `Cc1c(-c2ccc(Cl)cc2)c(C(=O)N(C)CC(C)(C)CN2CCOCC2)n(C2CC2)c1C(F)(F)F` [Example 016, 3-(4-Chlorophenyl)-1-cyclopropyl-N-(2,2-dimethyl-3-morpholin-4-yl-propyl)-N,4-dimethyl-5-(trifluoromethyl)-1H-pyrrole-2-carboxylic acid amide], the inhibition at 3 µM was > 95%. In the case of `CN(CC(C)(C)CN1CCOCC1)C(=O)c1c(-c2ccc(Cl)cc2)cc(C(F)(F)F)n1C1CC1` [Example 017, 3-(4-Chlorophenyl)-1-cyclopropyl-N-(2,2-dimethyl-3-morpholin-4-yl-propyl)-N-methyl-5-(trifluoromethyl)-1H-pyrrole-2-carboxylic acid amide] it was 75 to 95%; in that of `Cc1c(-c2ccc(Cl)cc2)c(C(=O)N(C)CC(C)(C)O)n(C2CC2)c1C(F)(F)F` [Example 018, 3-(4-Chlorophenyl)-1-cyclopropyl-N-(2-hydroxy-2-methyl-propyl)-N,4-dimethyl-5-(trifluoromethyl)-1H-pyrrole-2-carboxylic acid amide], 75 to 95%. On to `CN(CC(C)(C)O)C(=O)c1c(-c2ccc(Cl)cc2)cc(C(F)(F)F)n1C1CC1` [Example 019, 3-(4-Chlorophenyl)-1-cyclopropyl-N-(2-hydroxy-2-methyl-propyl)-N-methyl-5-(trifluoromethyl)-1H-pyrrole-2-carboxylic acid amide], for which the inhibition at 3 µM fell in the range of 40 to 75%. Then `Cc1cc(CN(C)C(=O)c2c(-c3ccc(Cl)cc3F)c(C)c(C(F)(F)F)n2C2CC2)no1` [Example 020, 3-(4-Chloro-2-fluoro-phenyl)-1-cyclopropyl-N,4-dimethyl-N-[(5-methyl-isoxazol-3-yl)-methyl]-5-(trifluoromethyl)-1H-pyrrole-2-carboxylic acid amide], with > 95%. Then `Cc1c(-c2ccc(Cl)cc2F)c(C(=O)N(C)Cc2ccncn2)n(C2CC2)c1C(F)(F)F` [Example 021, 3-(4-Chloro-2-fluoro-phenyl)-1-cyclopropyl-N,4-dimethyl-N-(pyrimidin-4-yl-methyl)-5-(trifluoromethyl)-1H-pyrrole-2-carboxylic acid amide], with > 95%; and `Cc1c(-c2ccc(Cl)cc2)c(C(=O)N(C)CC2CCOC2)n(C2CC2)c1C(F)(F)F` (centres unmarked) [Example 022, 3-(4-Chlorophenyl)-1-cyclopropyl-N,4-dimethyl-N-(tetrahydro-furan-3-yl-methyl)-5-(trifluoromethyl)-1H-pyrrole-2-carboxylic acid amide], with > 95%.

For `CN(CC1CCOC1)C(=O)c1c(-c2ccc(Cl)cc2)cc(C(F)(F)F)n1C1CC1` (centres unmarked) [Example 023, 3-(4-Chlorophenyl)-1-cyclopropyl-N-methyl-N-(tetrahydro-furan-3-yl-methyl)-5-(trifluoromethyl)-1H-pyrrole-2-carboxylic acid amide], the inhibition at 3 µM lay within 75 to 95%.
